From patent US20140309210A1, “INDAZOLE COMPOUNDS, COMPOSITIONS AND METHODS OF USE THEREOF” (Genentech, Inc., priority 2011, published 2014)

biological target: T1, purified ITK (Invitrogen PV3875) (Homo sapiens, UniProt Q08881); assay: ITK peptide phosphorylation assay (Caliper LabChip or LCMS); assay type: biochemical; settings: Table 1, Examples 141-279
T1 construct: purchased Invitrogen PV3875
T1 sequence (Q08881 1-620): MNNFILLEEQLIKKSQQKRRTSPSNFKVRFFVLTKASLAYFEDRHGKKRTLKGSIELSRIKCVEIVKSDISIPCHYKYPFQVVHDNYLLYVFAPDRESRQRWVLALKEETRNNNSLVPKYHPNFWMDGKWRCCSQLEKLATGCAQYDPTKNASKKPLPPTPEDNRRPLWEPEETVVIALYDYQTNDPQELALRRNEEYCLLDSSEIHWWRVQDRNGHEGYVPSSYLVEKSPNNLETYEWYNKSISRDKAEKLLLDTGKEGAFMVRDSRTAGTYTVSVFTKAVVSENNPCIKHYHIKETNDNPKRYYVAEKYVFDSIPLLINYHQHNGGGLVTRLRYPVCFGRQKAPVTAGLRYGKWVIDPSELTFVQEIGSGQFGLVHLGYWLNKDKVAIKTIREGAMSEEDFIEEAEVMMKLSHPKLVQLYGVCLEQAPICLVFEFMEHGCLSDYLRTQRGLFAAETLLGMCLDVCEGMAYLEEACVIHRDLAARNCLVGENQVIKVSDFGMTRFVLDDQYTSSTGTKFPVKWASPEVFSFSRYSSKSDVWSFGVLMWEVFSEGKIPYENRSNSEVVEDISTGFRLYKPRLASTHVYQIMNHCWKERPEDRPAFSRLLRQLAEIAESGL
Summary of the method: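 Ki values come from Morrison quadratic fits of activity versus inhibitor concentration, adjusted for ATP-competitive inhibition against ATP/Km,app. Substrate and phosphopeptide from purified ITK reactions were resolved either microfluidically (Caliper, EDTA stop) or by LC-MS MRM (TCA stop).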

Compound	Ki
Cc1cccc(C(CCN(C)C)n2cc(NC(=O)c3n[nH]c4cc(-c5cn[nH]c5)ccc34)cn2)c1 (stereo not drawn) [Example 246, N-[1-[3-(dimethylamino)-1-(m-tolyl)propyl]py-razol-4-yl]-6-(1H-pyrazol-4-yl)-1H-indazole-3-carboxamide]	0.0734 nM
CN(C)CCC(c1cccc(Cl)c1)n1cc(NC(=O)c2n[nH]c3cc(-c4cn[nH]c4)ccc23)cn1 (stereo not drawn) [Example 247, N-[1-[1-(3-chlorophenyl)-3-(dimethylami-no)propyl]pyrazol-4-yl]-6-(1H-pyrazol-4-yl)-1H-indazole-3-carboxamide]	0.127 nM
CN(C)CCC(c1cccc(C(F)(F)F)c1)n1cc(NC(=O)c2n[nH]c3cc(-c4cn[nH]c4)ccc23)cn1 (stereo not drawn) [Example 248, N-[1-[3-(dimethylamino)-1-[3-(trifluorometh-yl)phenyl]propyl]py-razol-4-yl]-6-(1H-pyrazol-4-yl)-1H-indazole-3-carboxamide]	0.128 nM
CN(C)CCC(c1cccc(Cl)c1)n1cc(NC(=O)c2n[nH]c3cc(-c4cn[nH]c4)ccc23)cn1 (stereo not drawn) [Example 249, N-[1-[1-(3-chlorophenyl)-3-(dimethylami-no)propyl]pyrazol-4-yl]-6-(1H-pyrazol-4-yl)-1H-indazole-3-carboxamide]	0.06 nM
N#Cc1cccc(Cn2cc(NC(=O)c3n[nH]c4cc(C(F)(F)F)ccc34)cn2)c1 [Example 250, N-[1-[(3-cyanophenyl)meth-yl]pyrazol-4-yl]-6-(trifluoromethyl)-1H-indazole-3-carboxamide]	103 nM
O=C(Nc1cnn(CC2CC3CCC2C3)c1)c1n[nH]c2cc(-c3cn[nH]c3)ccc12 (stereo not drawn) [Example 251, N-[1-(norbornan-2-ylmethyl)pyrazol-4-yl]-6-(1H-pyrazol-4-yl)-1H-indazole-3-carboxamide]	5 nM
CC(C)CN1CCOC(Cn2cc(NC(=O)c3n[nH]c4cc(-c5cn[nH]c5)ccc34)cn2)C1 (stereo not drawn) [Example 252, N-[1-[(4-isobutylmorpholin-2-yl)methyl]pyrazol-4-yl]-6-(1H-pyrazol-4-yl)-1H-indazole-3-carboxamide]	3.58 nM
CC1(Cn2cc(NC(=O)c3n[nH]c4cc(-c5cn[nH]c5)ccc34)cn2)COC1 [Example 253, N-[1-[(3-methyloxetan-3-yl)methyl]pyrazol-4-yl]-6-(1H-pyrazol-4-yl)-1H-indazole-3-carboxamide]	36.7 nM

Now from value to compound:

Ki	Compound
6.5 nM	CN1CCC(Cn2cc(NC(=O)c3n[nH]c4cc(-c5cn[nH]c5)ccc34)cn2)C1 (stereo not drawn) [Example 254, N-[1-[(1-methylpyrrolidin-3-yl)methyl]pyrazol-4-yl]-6-(1H-pyrazol-4-yl)-1H-indazole-3-carboxamide]
38.3 nM	COC(=O)C(c1ccccc1)n1cc(NC(=O)c2n[nH]c3ccccc23)cn1 (stereo not drawn) [Example 255, methyl 2-[4-(1H-indazole-3-carbonylamino)py-razol-1-yl]-2-phenyl-acetate]
146 nM	O=C(Nc1cnn(C(CO)c2ccccc2)c1)c1n[nH]c2ccccc12 (stereo not drawn) [Example 256, N-[1-(2-hydroxy-1-phenyl-ethyl)pyrazol-4-yl]-1H-indazole-3-carboxamide]
35.5 nM	O=C(Nc1cnn(C(CO)c2ccccc2)c1)c1n[nH]c2ccccc12 (stereo not drawn) [Example 257, N-[1-(2-hydroxy-1-phenyl-ethyl)pyrazol-4-yl]-1H-indazole-3-carboxamide]
5.68 nM	CN1CCC(Cn2cc(NC(=O)c3n[nH]c4cc(-c5cn[nH]c5)ccc34)cn2)CC1 [Example 258, N-[1-[(1-methyl-4-piperidyl)meth-yl]pyrazol-4-yl]-6-(1H-pyrazol-4-yl)-1H-indazole-3-carboxamide]
2.76 nM	O=C(Nc1cnn(CC2CN(Cc3ccccc3)CCO2)c1)c1n[nH]c2cc(-c3cn[nH]c3)ccc12 (stereo not drawn) [Example 259, N-[1-[(4-benzylmorpholin-2-yl)methyl]pyrazol-4-yl]-6-(1H-pyrazol-4-yl)-1H-indazole-3-carboxamide]
11.9 nM	N#CCn1cc(NC(=O)c2n[nH]c3cc(-c4cn[nH]c4)ccc23)cn1 [Example 260, N-[1-(cyanomethyl)py-razol-4-yl]-6-(1H-pyrazol-4-yl)-1H-indazole-3-carboxamide]
